Results taken from US8211714B2, “Characterization of molecules” (Analiza, Inc., priority 2001, dated 2012).

Experiments:
bovine β-lactoglobulin = molecular target: T1, bovine β-lactoglobulin (Bos taurus, UniProt P02754); assay: Partitioning of bovine β-lactoglobulin with binding partners in aqueous two-phase systems; conditions: for Partition coefficient K-value, Dex-Ficoll system: 8.88 wt.% Dextran-64, 12.86 wt.% Ficoll-400, 0.01 M sodium phosphate buffer pH 8.6; for Partition coefficient K-value, Dex-Ficoll system / Partition coefficient K-value, Dex-Ficoll-NaSCN system / Partition coefficient K-value, Dex-PEG system: protein:binding partner 1:1; for Partition coefficient K-value, Dex-Ficoll-NaSCN system: 10.98 wt.% Dextran-64, 15.95 wt.% Ficoll-400, […] NaSCN, 0.01 M sodium phosphate buffer pH 8.6; for Partition coefficient K-value, Dex-PEG system: 12.33 wt.% Dextran-64, 6.05 wt.% PEG-6000, 0.15M NaCl, 0.01 M sodium phosphate buffer pH 7.4; for Partition coefficient K-value, PEG/Phosphate system: 13.75 wt.% PEG-600, 21.00 wt.% sodium/potassium phosphate buffer pH 6.8, protein:binding partner molecular ratio 1:1; for effect of binding on the protein K-value: all the systems used
T1 sequence (P02754 17-178): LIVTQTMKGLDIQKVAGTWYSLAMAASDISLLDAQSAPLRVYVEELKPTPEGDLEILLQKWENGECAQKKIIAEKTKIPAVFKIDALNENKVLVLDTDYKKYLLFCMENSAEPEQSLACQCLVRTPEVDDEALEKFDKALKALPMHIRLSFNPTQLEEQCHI
Procedure: β-Lactoglobulin from bovine milk, retinol, nitrophenyl phosphate and bromoethanol were purchased from Sigma Chemical Company (St. Louis, Mo., USA) and used without further purification. A stock solution of β-lactoglobulin in water was prepared at a concentration of 10.0 mg/ml. Nitrophenyl phosphate, retinol, and bromoethanol were dissolved in the protein stock solutions in the molecular ratios as indicated in Table 1. These protein/binding partner solutions were subjected to partitioning in a series of different aqueous two-phase systems, also as indicated below.
The aqueous two-phase system contained 13.75 wt. % PEG-600 (molecular weight of about 600) and 21.00 wt. % sodium/potassium phosphate buffer (pH 6.8). Each system was prepared by mixing the appropriate amounts of stock polymer and buffer solutions dispensed by liquid handling workstation Hamilton ML-2200 into a 1.2 mL microtube. A total volume of 800 μL was dispensed to the microtube. A varied amount (40, 80, 120, 160, and 200 μL) of the β-lactoglobulin solution or that of a mixture of a given ratio and the corresponding amount (160, 120, 80, 40, and 0.0 μl) of water were added to a system. The ratio between the volumes of the two phases of each system of a final volume of 1.00 mL was as 1:1. The system was shaken vigorously and then centrifuged for 30 min. at about 4000 rpm to speed resolution of the two phases. Tubes were then taken from the centrifuge, aliquots of a given volume (100 μl for direct spectrophotometric analysis and 150 μl for fluorescence analysis) from the top and the bottom phases were withdrawn in duplicate. Each aliquot was diluted, mixed with appropriate reagents, and used for analyzed as described below.
The other aqueous two-phase system contained 8.88 wt. % Dextran-64 (molecular weight of about 64,000), 12.86 wt. % Ficoll-400 (molecular weight of about 400,000) and 0.01 M sodium phosphate buffer (pH 8.6). Each system was prepared by mixing the appropriate amounts of stock polymer and buffer solutions dispensed by liquid handling workstation Hamilton ML-2200 into a microtube of a total volume of 1.2 mL up to a total volume of a system of 820 μL. A varied amount (40, 80, 120, and 160 μl) of the β-lactoglobulin solution or that of a mixture of a given ratio and the corresponding amount (140, 100, 60, and 20 μl) of water were added to each system. The ratio between the volumes of the two phases of each system of a final volume of 1.00 mL was as 1:1. The system was shaken vigorously and centrifuged for 30 min. at about 4000 rpm to speed the resolution of the phases. Tubes were taken out of the centrifuge, and aliquots of a given volume (100 μl for direct spectrophotometric analysis and 150 μl for fluorescence analysis) from the top and the bottom phases were withdrawn in duplicate and each diluted and mixed with appropriate reagents as indicated below and used for further analysis performed as described below.
The other aqueous two-phase system contained 10.98 wt. % Dextran-64 (molecular weight of about 64,000), 15.95 wt. % Ficoll-400 (molecular weight of about 400,000), 0.24M NaSCN, and 0.01 M sodium phosphate buffer (pH 8.6). Each system was prepared by mixing the appropriate amounts of stock polymer, salt, and buffer solutions dispensed by liquid handling workstation Hamilton ML-2200 into a microtube of a total volume of 1.2 mL up to a total volume of a system of 920 μL. A varied amount (20, 40, 60, and 80 μl) of the β-lactoglobulin solution or that of a mixture of a given ratio and the corresponding amount (60, 40, 20, and 0 μl) of water were added to a system. The ratio between the volumes of the two phases of each system of a final volume of 1.00 mL was as 1:1. The system was vigorously shaken and centrifuged for 30 min. at about 4000 rpm in a centrifuge with a bucket rotor to speed the phase settling.

hen egg white lysozyme = molecular target: T2, hen egg white lysozyme (Gallus gallus, UniProt P00698); assay: Partitioning of hen egg white lysozyme and its mixtures with binding partners in aqueous two-phase systems; assay type: physicochemical; conditions: for Partition coefficient K-value, Dex-PEG system: pH 7.4; for Partition coefficient K-value, Dex-Ficoll system / Partition coefficient K-value, Dex-Ficoll-Na2SO4 system: pH 8.6
T2 construct: Lysozyme from hen egg white; purchased Sigma Chemical Company (St. Louis, Mo., USA); host or cells: isolated from hen egg white
Procedure: Glucose and N-acetyl-D-glucosamine were purchased from USB Corporation (Cleveland, Ohio, USA) and used without further purification. Stock solutions of lysozyme in water were prepared at a concentration of 5.0 mg/ml. N,N′-Diacetylchitobiose and N,N′,N″-triacetylchitotriose were dissolved at a concentration of 10 mg/ml and mixed with the protein solution in ratios appropriate to provide protein:ligand molecular ratios of 1:1. Stock solutions of lysozyme and of the lysozyme mixtures with ligands were added to an aqueous two-phase system as described below.

[1] = Partitioning of human, bovine and porcine insulin in aqueous two-phase systems; assay type: physicochemical; conditions: pH 7.4
Procedure: Human recombinant insulin was purchased from ICN Biomedicals Inc. (Aurora, Ohio, USA), bovine and porcine insulins were purchased from Calbiochem Corporation (San Diego, Calif., USA) and used without further purification. […] Stock solutions of all insulins in 0.009M HCl were prepared and titrated with 0.01M NaOH to pH 6.0 with the final protein concentration of ca. 1.0 mg/ml. Stock solution of human insulin, stock solution of porcine insulin, and stock solution of bovine insulin were added to an aqueous two-phase system as described below.

T2 sequence (P00698 19-147): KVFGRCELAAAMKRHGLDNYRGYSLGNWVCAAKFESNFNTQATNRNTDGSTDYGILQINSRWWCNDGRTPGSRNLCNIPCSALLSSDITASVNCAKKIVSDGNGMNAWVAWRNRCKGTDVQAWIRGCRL

Row | Partition coefficient K-value, PEG-3350-Phosphate system (hen egg white lysozyme) | Partition coefficient K-value, Dex-PEG system (hen egg white lysozyme) | Partition coefficient K-value, Dex-Ficoll system (hen egg white lysozyme) | Partition coefficient K-value, Dex-Ficoll-Na2SO4 system (hen egg white lysozyme) | Compound | Partition coefficient K-value, Dex-Ficoll system (bovine β-lactoglobulin) | Partition coefficient K-value, Dex-Ficoll-NaSCN system (bovine β-lactoglobulin) | Partition coefficient K-value, Dex-PEG system (bovine β-lactoglobulin) | Partition coefficient K-value, PEG/Phosphate system (bovine β-lactoglobulin) | other results
1 | – | – | – | – | O=[N+]([O-])c1ccc(OP(=O)(O)O)cc1 | 0.823 ± 0.018 | 0.420 ± 0.001 | 0.103 ± 0.001 | 1.714 ± 0.012 | effect of binding on the protein K-value (bovine β-lactoglobulin): decreases
2 | 2.402 ± 0.002 | 2.860 ± 0.035 | 0.818 ± 0.003 | 1.214 ± 0.010 | CC(=O)N[C@H]1C(O)O[C@H](CO)[C@@H](O)[C@@H]1O (stereo partly drawn) [N-Acetyl-D-glucosamine] | – | – | – | – | –
3 | – | – | – | – | OCCBr | 0.848 ± 0.009 | 0.486 ± 0.005 | 0.183 ± 0.001 | 1.904 ± 0.013 | effect of binding on the protein K-value (bovine β-lactoglobulin): decreases
4 | 1.311 ± 0.013 | 2.563 ± 0.032 | 0.826 ± 0.001 | 1.177 ± 0.009 | CC(=O)N[C@H]1[C@H](O[C@H]2[C@H](O)[C@@H](NC(C)=O)C(O)O[C@@H]2CO)O[C@H](CO)[C@@H](O)[C@@H]1O (stereo partly drawn) [N,N′-Diacetylchitobiose] | – | – | – | – | –
5 | – | – | – | – | Porcine Insulin: porcine insulin (Calbiochem); differs from human insulin by Ala in position B30 | – | – | – | – | Partition coefficient K-value, Dex-Ficoll-NaCl—NaPB [1]: 1.350 ± 0.015; Partition coefficient K-value, Dex-Ficoll-NaSCN—NaPB [1]: 0.911 ± 0.006; Partition coefficient K-value, Dex-PEG-NaClO4—NaPB [1]: 0.656 ± 0.020; Partition coefficient K-value, Dex-PEG-NaSCN—NaPB [1]: 1.514 ± 0.019
6 | – | – | – | – | Retinol acetate | 0.812 ± 0.006 | 0.468 ± 0.002 | 0.196 ± 0.001 | 1.858 ± 0.016 | effect of binding on the K-value of the protein (bovine β-lactoglobulin; Dex-Ficoll system): reduces; effect of binding on the K value of the protein (bovine β-lactoglobulin; PEG-Phosphate, Dex-PEG, and Dex-Ficoll-NaSCN systems): increases
7 | 0.461 ± 0.006 | 2.033 ± 0.052 | 0.803 ± 0.004 | 1.106 ± 0.007 | CC(=O)N[C@H]1[C@H](O[C@H]2[C@H](O)[C@@H](NC(C)=O)C(O)O[C@@H]2CO)O[C@H](CO)[C@@H](O[C@@H]2O[C@H](CO)[C@@H](O)[C@H](O)[C@H]2NC(C)=O)[C@@H]1O (stereo partly drawn) [N,N′,N″-Triacetylchitotriose] | – | – | – | – | –

Row | Compound | Partition coefficient K-value, PEG-3350-Phosphate system (hen egg white lysozyme) | Partition coefficient K-value, Dex-PEG system (hen egg white lysozyme) | Partition coefficient K-value, Dex-Ficoll system (hen egg white lysozyme) | Partition coefficient K-value, Dex-Ficoll-Na2SO4 system (hen egg white lysozyme) | Partition coefficient K-value, Dex-Ficoll system (bovine β-lactoglobulin) | Partition coefficient K-value, Dex-Ficoll-NaSCN system (bovine β-lactoglobulin) | Partition coefficient K-value, Dex-PEG system (bovine β-lactoglobulin) | Partition coefficient K-value, PEG/Phosphate system (bovine β-lactoglobulin) | other results
8 | hen egg white lysozyme: Lysozyme from hen egg white (Sigma); protein alone, row 'None' of Table 2 | 2.278 ± 0.006 | 2.728 ± 0.010 | 0.890 ± 0.007 | 1.239 ± 0.008 | – | – | – | – | –
